Laboratory results taken from PMC2711991 (Cancer research, 2009).
Where a name gives a salt, the structure may show the parent alone.

What was measured:
Format in all cases: cell-based
ABCG2 [1] = molecular target: T1, ABCG2 (Homo sapiens, UniProt Q9UNQ0); assay: BLI D-luciferin efflux inhibition in HEK293/ABCG2/fLuc cells
T1 sequence (Q9UNQ0 1-655): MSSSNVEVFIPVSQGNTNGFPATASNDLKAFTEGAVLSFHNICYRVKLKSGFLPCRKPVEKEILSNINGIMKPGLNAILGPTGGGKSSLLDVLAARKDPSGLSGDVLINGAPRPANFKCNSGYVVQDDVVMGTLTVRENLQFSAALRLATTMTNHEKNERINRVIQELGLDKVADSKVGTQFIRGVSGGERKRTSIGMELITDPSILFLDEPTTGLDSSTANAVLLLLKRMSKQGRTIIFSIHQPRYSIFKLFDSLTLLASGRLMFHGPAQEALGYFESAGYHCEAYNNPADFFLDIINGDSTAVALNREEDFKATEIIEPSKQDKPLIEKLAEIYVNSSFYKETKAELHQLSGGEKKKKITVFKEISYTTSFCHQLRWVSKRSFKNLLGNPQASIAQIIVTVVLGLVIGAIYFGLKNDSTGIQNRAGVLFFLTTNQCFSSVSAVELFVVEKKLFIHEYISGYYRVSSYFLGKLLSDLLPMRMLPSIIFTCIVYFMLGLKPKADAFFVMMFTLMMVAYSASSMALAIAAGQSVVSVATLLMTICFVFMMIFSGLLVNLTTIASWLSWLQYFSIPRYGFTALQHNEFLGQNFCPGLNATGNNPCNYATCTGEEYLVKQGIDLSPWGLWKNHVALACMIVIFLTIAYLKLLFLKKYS

ABCG2 [2] = molecular target: T1, ABCG2
ABCG2 [3] = molecular target: T1, ABCG2; assay: BODIPY-prazosin uptake in HEK293/ABCG2 cells at […]

IC50 (ABCG2 [1])	Compound	further results
~8.2 µM	COc1cc(N)c(Cl)cc1C(=O)NC1CCN(Cc2ccccc2)CC1 [clebopride maleate]	–
~20 µM	Cc1c(-c2ccccc2)oc2c(C(=O)OCCN3CCCCC3)cccc2c1=O [flavoxate hydrochloride]	–

More lines, now with the values behind:

Compound	IC50 (ABCG2 [1])	further results
COc1cc2nc(N3CCN(C(=O)C4COc5ccccc5O4)CC3)nc(N)c2cc1OC (centres unmarked) [doxazosin mesylate]	~8 µM	–
CC(C)C(=O)Nc1ccc([N+](=O)[O-])c(C(F)(F)F)c1 [flutamide]	–	BODIPY-prazosin uptake in HEK293/ABCG2 cells at 20 μM; BLI 6.1-fold enhancement; (ABCG2 [2]): flutamide|Y|Y
C=C(C)[C@H]1Cc2c(ccc3c2O[C@@H]2COc4cc(OC)c(OC)cc4[C@@H]2C3=O)O1 [rotenone]	–	BODIPY-prazosin uptake in HEK293/ABCG2 cells at 20 μM; BLI 6.7-fold enhancement; (ABCG2 [3]): rotenone|Y|Y
